Source: paper PMC11926788, “Effect of SSR504734, a Selective Glycine Transporter Type 1 Inhibitor, on Seizure Thresholds, Neurotransmitter Levels, and Inflammatory Markers in Mice” (ACS Chemical Neuroscience, 2025)
“And” between values parts separate entries of the source, which are not always exact repeats. Equal entries are not always repeated. Structures can show the parent of a compound that is named as a salt.

Assays:
GlyT1 = settings: in vitro assay; cited from earlier work
[1] = test system: tonic hindlimb extension in the MEST test in rats; settings: cited from earlier work
[2] = Chimney test (motor coordination); format: in vivo, mice
Procedure: The impact of SSR504734 on motor coordination in mice was evaluated by using the chimney test. Each animal was individually placed inside a transparent Plexiglas tube with an inner diameter of 3 cm and a length of 30 cm. The tube was horizontally positioned on a table and shifted vertically once the mouse reached the opposite end. Within a 60 s time frame, the mouse was required to climb backward to escape from the tube. In order to minimize the number of animals used, a chimney test was carried out shortly before seizure tests.
Table S2. Time-course effect of SSR5504734 on neuromuscular strength and motor […]
Group Neuromuscular strength Impairment of motor
SSR504734 was dissolved in normal saline and injected i.p. at the dose of 30 mg/kg. Control animals received saline. The data are expressed as the mean ± SD of grip strengths measured in millinewtons per gram of mouse body weight (mN/g) from the grip-strength test assessing […]
coordination impairment in the chimney test. Each experimental group consisted of 12 animals. The grip-strength test results were analyzed using a one-way ANOVA with Dunnett’s post hoc test, while the data from the chimney test were statistically evaluated using Fisher’s exact probability test. *p<0.05 vs. control group.
Table S3. Effect of acute and 14-day treatment with SSR504734 on neuromuscular strength and motor coordination in mice
In acute studies, SSR504734 and sodium valproate (VPA; positive control) were injected i.p.
60 and 15 min before the test, respectively. In subchronic studies, SSR504734 and VPA were injected i.p. every 24 h for 14 days. The last administration was made 60 and 15 min before the tests, respectively. Control animals received saline. Each experimental group consisted of 12 animals. The grip-strength test results were analyzed using a one-way ANOVA with […]
Fisher’s exact probability test.

hepatoma HepG2 cells = assay: Hepatotoxicity, HepG2 cell viability; format: cell-based
Procedure: A series of in vitro ADME-Tox tests were performed for SSR504734 in order to estimate its drugability. The ADME-Tox parameters including permeability, plasma protein binding, metabolic stability, neurotoxicity, and hepatotoxicity were carried out as described previously.[31],[32] The ability of SSR504734 to penetrate through the biological membrane by passive diffusion was estimated by the Gentest Precoated PAMPA Plate System (Corning, Tewksbury, MA) and expressed as the permeability coefficient (Pe). The protein binding analysis was performed by using the commercial TRANSIL^XL PPB test, which mimics in vitro physiological plasma conditions where human serum albumin (HAS) and alpha-1-acid glycoprotein AGP are present in a 24:1 ratio. The human metabolism of SSR504734 was studied using human liver microsomes (HLMs) provided by Sigma-Aldrich. The hepatotoxicity and neurotoxicity were estimated in cellular models with the use of hepatoma HepG2 and neuroblastoma SH-SY5Y cell lines to perform the preliminary safety tests. The cells were incubated with SSR504734 at the concentration range of 0.1–100 μM. 1 μM cytostatic drug doxorubicin (DX) was used as the reference.
Figure 8 Effect of cytostatic drug doxorubicin (DX) and SSR504734 on (A) hepatoma HepG2 and (B) neuroblastoma SH-SY5Y cell lines viability after 72 h of incubation at 37 °C, 5% CO2. Data are expressed as means ± SD. Statistical analysis: ****p < 0.0001 vs negative control −1% DMSO in growth media (one-way ANOVA, followed by Dunnett’s post hoc test).
Figure S8. The effect of cytostatic drug doxorubicin and SSR504734 on (A) hepatoma
HepG2 and (B) neuroblastoma SH-SY5Y cell line viability after 72 h of incubation at 37 °C,
5% CO2. The IC50 values were calculated by GraphPad Prism 8.0.
(1 picture or pasted object on this page, not shown here)

rat GlyT1 = molecular target: T1, rat GlyT1 (Rattus norvegicus, UniProt P28572); assay: GlyT1 radioligand binding ([3H]glycine, rat brain cortex, Eurofins Panlabs)
T1 construct: tissue Eurofins Panlabs Discovery Services Taiwan, Ltd. (ran the assay); host or cells: Wistar rat brain cortex
T1 sequence (P28572 1-638): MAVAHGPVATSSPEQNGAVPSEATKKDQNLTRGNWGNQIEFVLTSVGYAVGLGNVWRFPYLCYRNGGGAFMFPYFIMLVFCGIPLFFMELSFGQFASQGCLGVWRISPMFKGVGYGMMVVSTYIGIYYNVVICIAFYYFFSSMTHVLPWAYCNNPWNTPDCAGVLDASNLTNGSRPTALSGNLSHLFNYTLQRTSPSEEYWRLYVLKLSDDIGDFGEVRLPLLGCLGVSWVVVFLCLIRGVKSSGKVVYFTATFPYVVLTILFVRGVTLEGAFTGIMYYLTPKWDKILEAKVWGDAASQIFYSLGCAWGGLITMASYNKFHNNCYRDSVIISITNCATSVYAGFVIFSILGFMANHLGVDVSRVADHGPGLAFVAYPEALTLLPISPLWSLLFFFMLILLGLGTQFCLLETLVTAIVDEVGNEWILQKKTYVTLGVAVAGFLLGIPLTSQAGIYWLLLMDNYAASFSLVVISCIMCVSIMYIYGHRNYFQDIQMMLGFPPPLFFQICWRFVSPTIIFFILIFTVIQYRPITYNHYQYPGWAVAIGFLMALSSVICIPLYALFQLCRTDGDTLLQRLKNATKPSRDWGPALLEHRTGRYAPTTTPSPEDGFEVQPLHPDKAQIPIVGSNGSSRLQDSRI

[3] = test system: TNFα, IL-6, IL-1β, TLR4, IL-10, IFN-γ, IL-18 in serum; assay: Inflammatory markers in serum (ELISA); format: in vivo, mice; settings: 14-day administration, 30 mg/kg i.p.
Procedure: ELISA kits were used to determine IL-1-β, IL-6, IL-10, TNF-α, and IFN-γ (EIAAB Science INC, Wuhan, Hubei, China, nos. E0563m, E0079m, E0056m, E0049m, E0133m, E0753m) and IL-18 (Biorbyt Ltd., Cambridge, United Kingdom, no. orb437211) in the liver homogenates and serum. All assays were performed according to the producer’s instructions. All samples were tested in triplicate.

[4] = read-out: % inhibition of control specific binding

O=C(NC(c1ccccc1)C1CCCCN1)c1cccc(C(F)(F)F)c1Cl [SSR504734, 2-chloro-N-[(S)-phenyl[(2S)-piperidin-2-yl]methyl]-3-trifluoromethyl benzamide monohydrochloride]
IC50 for GlyT1 inhibition (GlyT1): 7.8 (±2.6) ng/mL | effect on threshold for tonic hindlimb extension [1]: strong, dose-dependent increase | Impairment of motor coordination ([2]; 30 mg/kg i.p., 15 min): 0% | Impairment of motor coordination ([2]; 30 mg/kg i.p., 30 min): 0% | Impairment of motor coordination ([2]; 30 mg/kg i.p., 60 min): 0% | Impairment of motor coordination ([2]; 30 mg/kg i.p., 120 min): 8.33% | Impairment of motor coordination ([2]; 30 mg/kg i.p., 240 min): 0% | Impairment of motor coordination ([2]; 14-day treatment, 3 mg/kg i.p.): 0% | Impairment of motor coordination ([2]; 14-day treatment, 10 mg/kg i.p.): 0% | Impairment of motor coordination ([2]; 14-day treatment, 30 mg/kg i.p.): 0% | Impairment of motor coordination ([2]; acute treatment, 10 mg/kg i.p.): 0% | Impairment of motor coordination ([2]; acute treatment, 30 mg/kg i.p.): 0% | Impairment of motor coordination ([2]; acute treatment, 50 mg/kg i.p., 50 mg/kg): 33.3% and ~33% | HepG2 cell viability (hepatoma HepG2 cells; 25 μM and higher concentrations, 72 h): significant decrease | IC50 (hepatoma HepG2 cells; Homo sapiens, HepG2, 72 h of incubation): 14.8 µM | hepatotoxic properties (HepG2 viability) (hepatoma HepG2 cells; concentration range of 1–10 μM, 72 h): did not exhibit hepatotoxic properties | % inhibition of control specific binding (rat GlyT1; 0.1 μM, rat brain cortex): moderate interaction | inhibition at 0.1 µM (rat GlyT1; [4]): 42% | inhibition at 20 µM (rat GlyT1; [4]): 52% | inhibition at 100 µM (rat GlyT1; [4]): 62% | serum concentration of IFN-γ [3]: no statistically significant differences | serum concentration of IL-1β [3]: significant increase | serum concentration of IL-6 [3]: significant increase | serum concentration of IL-10 [3]: significant increase | serum concentration of IL-18 [3]: no statistically significant differences | serum concentration of TNFα [3]: significant increase | serum concentration of TRL4 [3]: significant increase
